The target in data set [1] is T1, Mitogen-activated protein kinase 1 (Homo sapiens, UniProt P28482).
Description: Inhibition of human recombinant N-terminal 6-His-tagged ERK2 expressed in Escherichia coli using S/T17 as substrate after 30 mins by spectrophotometry
For data set [2], the target named is T1, Mitogen-activated protein kinase 1. The source holds these as a separate data set.
Description: Inhibition of ERK2 in human HepG2 cells assessed as P90RSK phosphorylation at Ser380 after 1.5 hrs by fluorescence assay
Data set [3] concerns the target Cyclin-dependent kinase 2 (Homo sapiens, UniProt P24941).
Description: Inhibition of Cdk2 (unknown origin)
Data set [4] in a line: Plasma protein binding in human. It counts as ADME, cell-free. As to conditions: read-out: PPB (converted).

The term IC50 denotes the concentration at which inhibition is half-maximal. A higher IC50 goes with weaker potency.

T1 sequence (P28482 whole entry): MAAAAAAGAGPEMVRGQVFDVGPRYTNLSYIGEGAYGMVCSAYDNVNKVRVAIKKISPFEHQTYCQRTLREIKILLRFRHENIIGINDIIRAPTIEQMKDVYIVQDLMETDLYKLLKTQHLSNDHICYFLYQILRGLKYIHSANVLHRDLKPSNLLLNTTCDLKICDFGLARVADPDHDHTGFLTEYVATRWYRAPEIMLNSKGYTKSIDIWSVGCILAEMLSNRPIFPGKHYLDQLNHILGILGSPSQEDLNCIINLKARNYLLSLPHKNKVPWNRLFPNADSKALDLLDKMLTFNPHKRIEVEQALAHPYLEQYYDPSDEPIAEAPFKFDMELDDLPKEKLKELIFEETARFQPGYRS

Take `CC(C)Nc1ncc2c(n1)CN(C(=O)NCc1ccc(Cl)c(F)c1)CC2`: the IC50 in data set [1] is 81 nM; in data set [2] it was 1630 nM.
As to `CC(C)Nc1ncc2c(n1)CN(C(=O)NCc1ccc(F)c(Cl)c1)CC2`, the IC50 in data set [1] came to 66 nM; in data set [2], 1220 nM.
As for `CC(C)Nc1ncc2c(n1)CN(C(=O)N[C@H](CO)c1ccc(F)c(Cl)c1)CC2`, the results for the IC50 in data set [1] and in data set [2] were 4 nM and 160 nM, respectively.
On to `CC(C)Nc1ncc2c(n1)CN(C(=O)N[C@@H](c1ccc(F)c(Cl)c1)[C@@H](C)O)CC2`, for which the IC50 in data set [1] is 3 nM; in data set [2], 88 nM.
Turning to `CC(C)Nc1ncc2c(n1)CN(C(=O)N[C@@H](c1ccc(F)c(Cl)c1)[C@H](C)O)CC2`, the IC50 is 6 nM in data set [1] and 200 nM in data set [2].
Turning to `CC[C@H](O)[C@@H](NC(=O)N1CCc2cnc(NC(C)C)nc2C1)c1ccc(F)c(Cl)c1`, the values for the concentration for half-maximal inhibition (IC50) in data set [1] and in data set [2] were 2 nM and 108 nM, respectively.
As for `COC[C@@H](NC(=O)N1CCc2cnc(NC(C)C)nc2C1)c1ccc(F)c(Cl)c1`, the IC50 in data set [1] was found to be 11 nM; in data set [2] it was 368 nM.
Regarding `COCCOC[C@@H](NC(=O)N1CCc2cnc(NC(C)C)nc2C1)c1ccc(F)c(Cl)c1`, the values for the IC50 in data set [1] and in data set [2] were 122 nM and 2110 nM, respectively.
For `CC(C)Nc1ncc2c(n1)CN(C(=O)N[C@H](CN)c1ccc(F)c(Cl)c1)CC2`, the IC50 in data set [1] turned out to be 2 nM; in data set [2] it was 356 nM.
`CNC[C@@H](NC(=O)N1CCc2cnc(NC(C)C)nc2C1)c1ccc(F)c(Cl)c1`: the figures for the IC50 in data set [1] and in data set [2] were 4 nM and 144 nM, respectively.
In the case of `CC(C)Nc1ncc2c(n1)CN(C(=O)N[C@H](CNCCO)c1ccc(F)c(Cl)c1)CC2`, the figures for the IC50 in data set [1] and in data set [2] were 8 nM and 2760 nM, respectively.
As for `CC(C)Nc1ncc2c(n1)CN(C(=O)N[C@H](CNS(C)(=O)=O)c1ccc(F)c(Cl)c1)CC2`, the IC50 in data set [1] turned out to be 7 nM; in data set [2], 917 nM.
On to `C[C@@H](NC(=O)N1CCc2cnc(N[C@H]3CCO[C@@H](CO)C3)nc2C1)c1ccc(Cl)c(Cl)c1`, for which the IC50 in data set [1] worked out at 2 nM; in data set [2], 7 nM; in data set [3] it was 2 nM.
Take `CNc1ncc2c(n1)CN(C(=O)N[C@H](CO)c1ccc(F)c(Cl)c1)CC2`: the IC50 in data set [1] came out at 43 nM; in data set [2] it was 2260 nM.
Turning to `CCNc1ncc2c(n1)CN(C(=O)N[C@H](CO)c1ccc(F)c(Cl)c1)CC2`, the values for the IC50 in data set [1] and in data set [2] were 20 nM and 753 nM, respectively.
For `O=C(N[C@H](CO)c1ccc(F)c(Cl)c1)N1CCc2cnc(NCCO)nc2C1`, in that order: 9 nM and 2450 nM.
Take `O=C(N[C@H](CO)c1ccc(F)c(Cl)c1)N1CCc2cnc(NC3CCCC3)nc2C1`: the results for the IC50 in data set [1] and in data set [2] were 4 nM and 330 nM, respectively.
In the case of `C[C@@H](CO)Nc1ncc2c(n1)CN(C(=O)N[C@H](C)c1ccc(Cl)c(Cl)c1)CC2`, the IC50 is 1 nM in data set [1], 21 nM in data set [2] and 104 nM in data set [3]. Besides, the fraction unbound in data set [4] was 0.03.
On to `CC[C@@H](NC(=O)N1CCc2cnc(N[C@@H](C)CO)nc2C1)c1ccc(F)c(F)c1`, for which the IC50 in data set [1] turned out to be 3 nM; in data set [2], 51 nM; in data set [3], 13 nM. Besides, the fraction unbound in data set [4] is 0.226.
The like results for `CC[C@@H](NC(=O)N1CCc2cnc(N[C@@H](C)CO)nc2C1)c1ccc(Cl)c(Cl)c1` were, in that order, 2 nM, 23 nM, 12 nM and 0.025.
The like results for `C[C@@H](CO)Nc1ncc2c(n1)CN(C(=O)N[C@H](C)c1ccc(C(F)(F)F)c(F)c1)CC2` were, in that order, 3 nM, 110 nM, 821 nM and 0.013.
`CC[C@@H](NC(=O)N1CCc2cnc(N[C@@H](C)CO)nc2C1)c1ccc(OC)c(Cl)c1`: the IC50 is 2 nM in data set [1], 14 nM in data set [2] and 71 nM in data set [3]. Besides, the fraction unbound in data set [4] is 0.081.
For the compound `CC(C)(C)Nc1ncc2c(n1)CN(C(=O)N[C@H](CO)c1ccc(F)c(Cl)c1)CC2`, the values for the IC50 in data set [1] and in data set [2] were 41 nM and 3010 nM, respectively.
On to `O=C(N[C@H](CO)c1ccc(F)c(Cl)c1)N1CCc2cnc(N[C@H]3CC[C@H](O)C3)nc2C1`, for which the values for the IC50 in data set [1] and in data set [2] were 2 nM and 198 nM, respectively.
Regarding `Cc1cc(Nc2ncc3c(n2)CN(C(=O)N[C@H](C)c2ccc(Cl)c(Cl)c2)CC3)ccn1`, the IC50 in data set [1] turned out to be 1 nM; in data set [2], 23 nM; in data set [3] it was 9 nM. Also, in data set [4], the fraction unbound is 0.006.
As to `COc1ccc(CNC(=O)N2CCc3cnc(NC(C)C)nc3C2)cc1`, the IC50 in data set [1] was found to be 106 nM; in data set [2], 4400 nM.
The like results for `O=C(N[C@H](CO)c1ccc(F)c(Cl)c1)N1CCc2cnc(Nc3ccc(F)cc3)nc2C1` were, in that order, 3 nM and 348 nM.
Regarding `Cc1noc(C)c1Nc1ncc2c(n1)CN(C(=O)N[C@H](CO)c1ccc(F)c(Cl)c1)CC2`, in data set [2], the IC50 amounted to 13200 nM.
In the case of `CC(C)Nc1ncc2c(n1)CN(C(=O)NCc1ccccc1)CC2`, the IC50 in data set [1] is 283 nM; in data set [2], 4380 nM.
As to `CC(C)Nc1ncc2c(n1)CN(C(=O)NCc1ccc(F)cc1)CC2`, the results for the IC50 in data set [1] and in data set [2] were 69 nM and 6620 nM, respectively.
The like results for `CC(C)Nc1ncc2c(n1)CN(C(=O)NCc1ccc(Cl)cc1)CC2` were, in that order, 91 nM and 2140 nM.
In the case of `CC(C)Nc1ncc2c(n1)CN(C(=O)NCc1cccc(F)c1)CC2`, the IC50 in data set [1] amounted to 93 nM; in data set [2] it was 2610 nM.
For `CC(=O)Nc1ncc2c(n1)CN(C(=O)N[C@H](CO)c1ccc(F)c(Cl)c1)CC2`, the IC50 in data set [1] was 93 nM; in data set [2], 7440 nM.
With `Cn1cc(Nc2ncc3c(n2)CN(C(=O)N[C@H](CO)c2ccc(F)c(Cl)c2)CC3)cn1`, the results for the IC50 in data set [1] and in data set [2] were 6 nM and 247 nM, respectively.
On to `Cc1cc(Nc2ncc3c(n2)CN(C(=O)N[C@H](CO)c2ccc(F)c(Cl)c2)CC3)ccn1`, for which the IC50 came to 7 nM in data set [1] and 445 nM in data set [2].
Regarding `CC(C)Nc1ncc2c(n1)CN(C(=O)NCc1cccc(Cl)c1)CC2`, the IC50 was determined as 89 nM in data set [1] and 1860 nM in data set [2].
`O=C(N[C@H](CO)c1ccc(Cl)c(Cl)c1)N1CCc2cnc(NC3CCOCC3)nc2C1`: the IC50 in data set [1] came to 1 nM; in data set [2], 17 nM; in data set [3] it was 11 nM. Moreover, the fraction unbound in data set [4] was 0.103.
Turning to `C[C@@H](NC(=O)N1CCc2cnc(NC3CCOCC3)nc2C1)c1ccc2cc[nH]c2c1`, the figures for the IC50 in data set [1], in data set [2] and in data set [3] were 2 nM, 21 nM and 69 nM, respectively.
As for `C[C@@H](NC(=O)N1CCc2cnc(NC3CCOCC3)nc2C1)c1ccc(Cl)c(F)c1`, the results for the IC50 in data set [1], in data set [2] and in data set [3] were 1 nM, 12 nM and 13 nM, respectively. The fraction unbound in data set [4] was 0.095.
As for `CC[C@@H](NC(=O)N1CCc2cnc(NC3CCOCC3)nc2C1)c1ccc(C#N)c(Cl)c1`, the IC50 in data set [1] was 1 nM; in data set [2], 4 nM; in data set [3], 2 nM.
Regarding `C[C@@H](CO)Nc1ncc2c(n1)CN(C(=O)N[C@H](CO)c1ccc(F)c(Cl)c1)CC2`, the IC50 in data set [1] was 3 nM; in data set [2], 473 nM.
As for `CC(C)CNc1ncc2c(n1)CN(C(=O)N[C@H](CO)c1ccc(F)c(Cl)c1)CC2`, the figures for the IC50 in data set [1] and in data set [2] were 10 nM and 513 nM, respectively.
In the case of `C[C@@H](NC(=O)N1CCc2cnc(Nc3cnn(C)c3)nc2C1)c1ccc(Cl)c(Cl)c1`, the values for the IC50 in data set [1], in data set [2] and in data set [3] were 1 nM, 35 nM and 4 nM, respectively. Further, the fraction unbound in data set [4] was 0.018.
For `C[C@@H](NC(=O)N1CCc2cnc(Nc3ccnn3C)nc2C1)c1ccc(Cl)c(Cl)c1`, in that order: 1 nM, 43 nM, 23 nM and 0.01.

These data come from ChEMBL document CHEMBL3297705, “Discovery of 5,6,7,8-tetrahydropyrido[3,4-d]pyrimidine inhibitors of Erk2” (Bioorg Med Chem Lett, 2014).
